Experimental data taken from patent US8772504B2, “Substituted benzoxazole, benzimidazole, oxazolopyridine and imidazopyridine derivatives as gamma secretase modulators” (Janssen Pharmaceuticals, Inc., priority 2009, dated 2014).
pIC50: −log10 of the molar value.

Assays:
Format in all cases: cell-based
Aβ42 [1] = test: Screening for γ-secretase-modulating activity, Method 2: Aβ42 Alphalisa on SKNBE2 cell supernatant; settings: Method 2, Table 3c, SKNBE2 cells carrying APP 695 wild type, overnight incubation
Description: (§1) Screening was carried out using SKNBE2 cells carrying the APP 695—wild type, grown in Dulbecco's Modified Eagle's Medium/Nutrient mixture F-12 (DMEM/NUT-mix F-12) (HAM) provided by Invitrogen (cat no. 10371-029) containing 5% Serum/Fe supplemented with 1% non-essential amino acids, 1-glutamine 2 mM, Hepes 15 mM, penicillin 50 U/ml (units/ml) en streptomycin 50 μg/ml. Cells were grown to near confluency.
(§2) The screening was performed using a modification of the assay as described in Citron et al (1997) Nature Medicine 3: 67. Briefly, cells were plated in a 384-well plate at 10^4 cells/well in Ultraculture (Lonza, BE12-725F) supplemented with 1% glutamine (Invitrogen, 25030-024), 1% non-essential amino acid (NEAA), penicillin 50 U/ml en streptomycin 50 μg/ml in the presence of test compound at different test concentrations. The cell/compound mixture was incubated overnight at 37° C., 5% CO2. The next day the media were assayed by two sandwich immuno-assays, for Aβ42 and Aβtotal.
(§3) Aβtotal and Aβ42 concentrations were quantified in the cell supernatant using the Aphalisa technology (Perkin Elmer). Alphalisa is a sandwich assay using biotinylated antibody attached to streptavidin coated donorbeads and antibody conjugated to acceptor beads. In the presence of antigen, the beads come into close proximity. The excitation of the donor beads provokes the release of singlet oxygen molecules that trigger a cascade of energy transfer in the acceptor beads, resulting in light emission. To quantify the amount of Aβ42 in the cell supernatant, monoclonal antibody specific to the C-terminus of Aβ42 (JRF/cAβ42/26) was coupled to the receptor beads and biotinylated antibody specific to the N-terminus of Aβ (JRF/AβN/25) was used to react with the donor beads. To quantify the amount of Aβtotal in the cell supernatant, monoclonal antibody specific to the N-terminus of Aβ (JRF/AβN/25) was coupled to the receptor beads and biotinylated antibody specific to the mid region of Aβ (biotinylated 4G8) was used to react with the donor beads.
(§4) To obtain the values reported in Table 3c, the data were calculated as percentage of the maximum amount of amyloid Beta 42 measured in the absence of the test compound. The sigmoidal dose response curves were analyzed using non-linear regression analysis with percentage of the control plotted against the log concentration of the compound. A 4-parameter equation was used to determine the IC50.

Aβtotal [2] = test: Screening for γ-secretase-modulating activity, Method 2: Aβtotal Alphalisa on SKNBE2 cell supernatant; settings: Method 2, Table 3c, SKNBE2 cells carrying APP 695 wild type, overnight incubation
Description: as §1, §2, §3, §4

Aβ42 [3] = test: Screening for γ-secretase-modulating activity, Method 1: Aβ42 sandwich ELISA on SKNBE2 cell media; settings: SKNBE2 cells carrying APP 695 wild type
Description: as §1, with “Gibco” for “Invitrogen”, “31330-38)” for “10371-029)”, “acids.” for “acids, 1-glutamine 2 mM, Hepes 15 mM, penicillin 50 U/ml (units/ml) en streptomycin 50 μg/ml.”
(§5) The screening was performed using the assay as described in Citron et al (1997) Nature Medicine 3: 67. Briefly, cells were plated in a 96-well plate at about 10^5 cells/ml one day prior to addition of compounds. Compounds were added to the cells in Ultraculture (Lonza, BE12-725F) supplemented with 1% glutamine (Invitrogen, 25030-024) for 18 hours. The media were assayed by two sandwich ELISAs, for Aβ42 and Aβtotal. Toxicity of the compounds was assayed by WST-1 cell proliferation reagent (Roche, 1 644 807) according to the manufacturer's protocol.
To quantify the amount of Aβ42 in the cell supernatant, commercially available Enzyme-Linked-Immunosorbent-Assay (ELISA) kits were used (Innotest® β-Amyloid(1-42), Innogenetics N.V., Ghent, Belgium). The Aβ42 ELISA was performed essentially according to the manufacturer's protocol. Briefly, the standards (dilutions of synthetic Aβ1-42) were prepared in polypropylene Eppendorf with final concentrations of 8000 down to 3.9 pg/ml (1/2 dilution step). Samples, standards and blanks (100 μl) were added to the anti-Aβ42-coated plate supplied with the kit (the capture antibody selectively recognizes the C-terminal end of the antigen). The plate was allowed to incubate 3 h at 25° C. in order to allow formation of the antibody-amyloid complex. Following this incubation and subsequent wash steps a selective anti-Aβ-antibody conjugate (biotinylated 3D6) was added and incubated for a minimum of 1 hour in order to allow formation of the antibody-Amyloid-antibody-complex. After incubation and appropriate wash steps, a Streptavidine-Peroxidase-Conjugate was added, followed 30 minutes later by an addition of 3,3′,5,5′-tetramethylbenzidine (TMB)/peroxide mixture, resulting in the conversion of the substrate into a coloured product. This reaction was stopped by the addition of sulfuric acid (0.9 N) and the colour intensity was measured by means of photometry with an ELISA-reader with a 450 nm filter.
(§6) To obtain the values reported in Table 3a, the sigmoidal dose response curves were analysed by computerised curve-fitting, with percent of inhibition plotted against compound concentration. A 4-parameter equation (model 205) in XLfit was used to determine the IC50. The top and the bottom of the curve were fixed to 100 and 0, respectively, and the hill slope was fixed to 1. The IC50 represents the concentration of a compound that is required for inhibiting a biological effect by 50% (Here, it is the concentration where Aβ peptide level is reduced by 50%).
as §4, with “3b,” for “3c,”, “IC50. The values reported in Table 3b are averaged IC50 values.” for “IC50.”

Aβtotal [4] = test: Screening for γ-secretase-modulating activity, Method 1: Aβtotal sandwich ELISA on SKNBE2 cell media; settings: SKNBE2 cells carrying APP 695 wild type
Description: as §1, with “Gibco” for “Invitrogen”, “31330-38)” for “10371-029)”, “acids.” for “acids, 1-glutamine 2 mM, Hepes 15 mM, penicillin 50 U/ml (units/ml) en streptomycin 50 μg/ml.”
as §5
To quantify the amount of Aβtotal in the cell supernatant, samples and standards were added to a 6E10-coated plate. The plate was allowed to incubate overnight at 4° C. in order to allow formation of the antibody-amyloid complex. Following this incubation and subsequent wash steps a selective anti-Aβ-antibody conjugate (biotinylated 4G8) was added and incubated for a minimum of 1 hour in order to allow formation of the antibody-Amyloid-antibody-complex. After incubation and appropriate wash steps, a Streptavidine-Peroxidase-Conjugate was added, followed 30 minutes later by an addition of Quanta Blu fluorogenic peroxidase substrate according to the manufacturer's instructions (Pierce Corp., Rockford, Ill.).
as §6
as §4, with “3b,” for “3c,”, “IC50. The values reported in Table 3b are averaged IC50 values.” for “IC50.”

[5] = Table 3a, 18 hours, XLfit, top/bottom fixed to 100 and 0, hill slope 1
[6] = Table 3b, non-linear regression of % of control, averaged IC50 values
[7] = Homo sapiens, Table 3b, non-linear regression of % of control, averaged IC50 values

Row | SMILES | pIC50 (Aβ42 [1]) | pIC50 (Aβtotal [2]) | pIC50 (Aβ42 [3]; [6]) | pIC50 (Aβtotal [4]; [6]) | other results
1 | COc1cc(Nc2cccc3c2nc(C(C)c2ccc(Cl)cc2)n3C)ccc1-n1cnc(C)n1 (racemic) [Compound 122] | 6.43 | < 5.00 | – | – | –
2 | COc1cc(Nc2cccc3c2nc(Cc2ccc(F)cc2)n3C)ccc1-n1cnc(C)c1 [Compound 81] | – | – | 7.68 | < 6.00 | pIC50 (Aβ42 [3]; [5]): 7.68; pIC50 (Aβtotal [4]; [5]): < 6.00
3 | COc1cc(-c2nc3c(Nc4ccc(-n5cncn5)c(F)c4)cccc3n2C)ccc1Cl [Compound 83] | – | – | 7.35 | < 5.52 | pIC50 (Aβ42 [3]; [5]): 7.33; pIC50 (Aβtotal [4]; [5]): < 5.52
4 | COc1cc(Nc2cccc3c2nc(-c2cccc(OC)c2Cl)n3C)ccc1-n1cnc(C)n1 [Compound 84] | – | – | 6.85 | < 5.52 | pIC50 (Aβ42 [3]; [5]): 6.85; pIC50 (Aβtotal [4]; [5]): < 5.52
5 | Cc1ncnn1-c1ccc(Nc2cccc3c2nc(-c2ccc(F)cc2)n3C(C)C)cc1 [Compound 88] | – | – | 7.14 | < 5.52 | pIC50 (Aβ42 [3]; [5]): 7.24; pIC50 (Aβtotal [4]; [5]): < 5.52
6 | COc1cc(Nc2nccc3[nH]c(-c4ccc(F)cc4)nc23)ccc1-n1cnc(C)c1 [Compound 90] | – | – | 7.41 | < 5.30 | pIC50 (Aβ42 [3]; [5]): 7.41; pIC50 (Aβtotal [4]; [5]): < 6.00
7 | COc1cc(Nc2nccc3c2nc(-c2ccc(F)cc2F)n3C)ccc1-n1cnc(C)n1 [Compound 98] | – | – | 6.48 | < 5.00 | pIC50 (Aβ42 [3]; [5]): 6.45; pIC50 (Aβtotal [4]; [5]): < 5.52
8 | COc1cc(Nc2cccc3c2nc(COc2ccccc2)n3C)ccc1-n1ncnc1C [Compound 99] | – | – | 6.37 | < 5.00 | pIC50 (Aβ42 [3]; [5]): 6.36; pIC50 (Aβtotal [4]; [5]): < 5.52
9 | Cc1cc2c(nc(-c3ccc(F)cc3)n2C)c(Nc2ccc(-n3ncnc3C)c(F)c2)n1 [Compound 100] | – | – | 6.18 | < 5.00 | pIC50 (Aβ42 [3]; [5]): 6.19; pIC50 (Aβtotal [4]; [5]): < 5.52
10 | COc1cc(Nc2cccc3c2nc(CC(C)C)n3CC(F)(F)F)ccc1-n1cnc(C)n1 [Compound 105] | – | – | 6.89 | 5.60 | pIC50 (Aβ42 [3]; [5]): 6.89; pIC50 (Aβtotal [4]; [5]): 5.55
11 | C=C(C)c1cc(Nc2ccc(-n3cnc(C)n3)c(OC)c2)c2nc(-c3ccc(F)cc3)n(C)c2n1 [Compound 109] | – | – | – | – | pIC50 (Aβ42 [3]; [7]): 7.49; pIC50 (Aβtotal [4]; [7]): < 5.52
12 | Cc1cn(-c2ccc(Nc3cc(C)nc4c3nc(-c3ccc(F)cc3)n4C)cc2F)cn1 [Compound 112] | – | – | – | – | pIC50 (Aβ42 [1]; Homo sapiens): 7.72; pIC50 (Aβtotal [2]; Homo sapiens): < 5.00
13 | COc1cc(Nc2cc(C)nc3c2nc(-c2ccc(F)cc2)n3C)ccc1-n1cnc(C)n1 [Compound 113] | – | – | – | – | pIC50 (Aβ42 [1]; Homo sapiens): 7.46; pIC50 (Aβtotal [2]; Homo sapiens): < 5.00
14 | COc1cc(Nc2cccc3c2nc(-c2ccc(F)cc2)n3C)ccc1-n1cnc(CO)c1 [Compound 118] | – | – | 7.16 | < 5.52 | –
15 | COCc1cn(-c2ccc(Nc3cccc4c3nc(-c3ccc(F)cc3)n4C)cc2OC)cn1 [Compound 119] | – | – | – | – | pIC50 (Aβ42 [1]; Homo sapiens): 7.19; pIC50 (Aβtotal [2]; Homo sapiens): < 5.00
16 | COc1cc(Nc2cccc3c2nc(C2(c4ccc(Cl)cc4)CC2)n3C)ccc1-n1cnc(C)n1 [Compound 123] | 6.84 | < 5.00 | – | – | –
17 | Cc1cn(-c2ccc(Nc3cccc4c3nc(-c3ccc(=O)n(C)c3)n4C)cc2F)cn1 [Compound 124] | 5.41 | < 5.00 | – | – | –
18 | COc1nc(Nc2cccc3c2nc(-c2ccc(F)c(Br)c2)n3C)ccc1-n1cnc(C)c1 [Compound 133] | – | – | – | – | pIC50 (Aβ42 [1]; Homo sapiens): 8.05; pIC50 (Aβtotal [2]; Homo sapiens): < 5.00

Further lines, with some results ahead:

Row | pIC50 (Aβ42 [1]) | pIC50 (Aβtotal [2]) | pIC50 (Aβ42 [3]; [6]) | pIC50 (Aβtotal [4]; [6]) | SMILES | other results
19 | 7.59 | < 5.00 | – | – | Cc1cn(-c2ccc(Nc3cc(F)cc4c3nc(-c3ccc(F)cc3)n4C(C)C)cc2F)cn1 [Compound 125] | –
20 | 7.72 | < 5.00 | – | – | COc1cc(Nc2cccc3c2nc(-c2cccc(Cl)c2)n3C(C)C)ccc1-n1cnc(C)n1 [Compound 126] | –
21 | – | – | 7.25 | < 5.52 | CCn1c(-c2cc(F)ccc2F)nc2c(Nc3ccc(-n4cnc(C)n4)c(OC)c3)cc(F)cc21 [Compound 127] | –
22 | – | – | 7.96 | < 5.52 | COc1cc(Nc2cc(F)cc3c2nc(-c2ccccc2Cl)n3C)ccc1-n1cnc(C)n1 [Compound 128] | –
23 | 8.30 | 5.34 | – | – | COc1nc(Nc2cccc3c2nc(-c2cc(F)cc(C(F)(F)F)c2)n3C)ccc1-n1cnc(C)c1 [Compound 132] | –
24 | 8.30 | 5.16 | – | – | COc1cc(-c2nc3c(Nc4ccc(-n5cnc(C)c5)c(OC)n4)cccc3n2C)ccc1Cl [Compound 134] | –
25 | 8.00 | < 5.00 | – | – | COc1cc(-c2nc3c(Nc4ccc(-n5cnc(C)n5)c(OC)c4)nc(C)cc3n2C)ccc1Cl [Compound 135] | –
26 | 6.90 | < 5.00 | – | – | COc1ccccc1-c1nc2c(Nc3ccc(-n4cnc(C)c4)c(F)c3)nc(C)cc2n1C [Compound 138] | –
27 | 7.46 | < 5.00 | – | – | Cc1cn(-c2ccc(Nc3nc(C)cc4c3nc(-c3ccccc3Cl)n4C)cc2F)cn1 [Compound 139] | –
28 | 8.40 | < 5.00 | – | – | COc1cc(-c2nc3c(Nc4ccc(-n5cnc(C)c5)c(OC)n4)cc(F)cc3n2C)ccc1Cl [Compound 140] | –
29 | 6.26 | < 5.00 | – | – | Cc1cn(-c2ccc(Nc3nc(C)cc4c3nc(-c3cccnc3)n4C)cc2F)cn1 [Compound 143] | –
30 | 6.84 | < 5.00 | – | – | COc1ccc(-c2nc3c(Nc4ccc(-n5cnc(C)c5)c(F)c4)nc(C)cc3n2C)c(F)c1 [Compound 144] | –
31 | – | – | 6.68 | < 5.52 | COc1cc(Nc2nccc3c2nc(-c2ccccc2Cl)n3C)ccc1-n1cnc(C)n1 [Compound 145] | –
32 | 6.46 | < 5.00 | – | – | COc1nc(Nc2cccc3c2nc(-c2ccc(=O)n(C)c2)n3C)ccc1-n1cnc(C)c1 [Compound 146] | –
33 | 7.36 | 5.10 | – | – | COc1cc(Nc2nc(C)cc3c2nc(-c2ccccc2Cl)n3C)ccc1-n1cnc(C)n1 [Compound 147] | –
34 | – | – | 7.24 | < 5.52 | COc1cc(Nc2nc(Cl)cc3c2nc(-c2ccc(F)cc2)n3C)ccc1-n1cnc(C)n1 [Compound 156] | –
